Measurements from patent publication US11491146B2, “Therapeutic methods and combinations” (priority 2017, dated 2022).
“And” between values parts separate entries of the source, which are not always exact repeats. Equal entries are not always repeated. Where two headings read alike, the source gives them in different places.

Tests used:
VIM-2 [1] = biological target: T1, VIM-2 (Pseudomonas aeruginosa, UniProt Q9K2N0); experiment: Single dose enzymatic inhibition assay against VIM2 (nitrocefin hydrolysis); format: biochemical, P. aeruginosa; conditions: for VIM2 inhibition in words: single dose, 50 μM
Method: (§1) For our biochemical assay, the blavmugene, from a clinical strain of P. aeruginosa, was expressed using the pET24a (+) vector [20]. The pET24a-VIM-2 plasmid was transformed into competent BL21 (DE3) E. coli cells. The cells were plated onto an LB-agar plate with kanamycin (25 μg/mL) and incubated overnight at 37° C. A single colony was used to inoculate 50 mL of LB, containing 25 μg/mL kanamycin, and the culture was shaken overnight at 37° C. From the overnight culture, 10 mL were transferred to 4×1 L LB medium containing 25 μg/mL kanamycin. The cultures were grown at 37° C. until the optical density (OD600 nm) reached 0.6-0.8, at which point protein production was induced with IPTG (0.5 mM) and ZnC12 (100 μM). The temperature was reduced to 20° C., and the cells were shaken for an additional 18 h. The cultures were harvested by centrifugation (8K×g) for 10 min at 4° C. The resulting pellets were re-suspended with 25 mL of 50 mM HEPES, pH 7.5, containing 500 mM NaCl (buffer B). The cells were lysed with three passes through a French Press. The lysate was centrifuged (15 Kxg) for 30 min at 4° C. The supernatant was dialyzed against 2 L of 50 mM HEPES, pH 7.5 (buffer A), for 4 h. Buffer A was used to equilibrate a 25 mL Q-Sepharose column using an FPLC. The sample was loaded onto the column, and proteins were eluted with a linear gradient 0-500 mM NaCl with buffer B. Fractions containing VIM2, determined by SDS-PAGE, were pooled and concentrated to 2-3 mL in an Amicon ultraconcentrator equipped YM-10 membrane. Further purification was conducted with a Sephacryl S-200 gel filtration column using 50 mM HEPES, pH 7.5, containing 150 mM NaCl.

E. coli = experiment: Cell viability assay, wild type E. coli growth; format: cell-based; conditions: for relative percentage growth compared to untreated cells: E. coli
Method: (§2) The cells were cultured on 0.8 g/100 ml nutrient agar plate at pH 7.0 and 37° C. The bacterial growth medium was diluted in nutrient broth (NB) to a concentration absorbance of 1.5 at OD600 nm and incubated overnight in 10 ml capped culture tubes with shaking. An overnight culture of the bacterial strain was sub-cultured to an optical density of 0.06 at OD600 nm into the NB medium and was then seeded at max 200 μl into the wells of a 96 well microtiter plate. Samples were then incubated at 37° C. and shaken at 200 rpm for 18 h.

VIM2 expressing E. coli = format: cell-based
Method: as §2

VIM-2 [2] = biological target: T1, VIM-2; experiment: Dose response enzymatic inhibition assay and inhibition constant against VIM2; format: biochemical, P. aeruginosa; conditions: for Ligand efficiency (LE): LE = −1.38 log (Ki)/N, N = number of heavy atoms
Method: as §1
The relative change in absorbance was evaluated as percentage inhibition and the IC50 was determined by fitting the data to a sigmoidal dose-response curve. The enzyme inhibition constant (Ki) was derived from initial-velocity measurements by nonlinear regression using competitive-inhibition enzyme kinetics using Graphpad Prism 6.

VIM-2 [3] = biological target: T1, VIM-2; conditions: literature value; read-out: IC50 in parenthesis reported from ref. 3; cited from earlier work
[4] = Cytotoxicity by MTT cell proliferation assay in HEK293; conditions: human, HEK293 cells
Method: (§3) Human embryonic kidney cell line (HEK293) was grown in DMEM (Dulbecco's modifications of eagle's medium with L-glutamine & 4.5 G/L glucose) supplemented with fetal bovine serum 100 units/ml of penicillin G and 0.1 mg/ml of streptomycin sulfate in a humidified atmosphere of a 5% CO2 at 37° C.
(§4) Cell proliferations were measured by counting viable cells by using the 3(4,5dimethylthiazol-2-yl)-2,5-diphenyltetrazolium bromide (MTT) (Sigma-Aldrich, St. Louis, Mo.) colorimetric dye-reduction assay. […] After 72 hrs, 10 μl of MTT (5 mg/ml) dye was added to each well and the plates were incubated for 4 hours at 37° C. in 5% CO2 incubator. After centrifuge with 1,500 rpm/10 mins, the supernatant was removed and 200 μl of dimethyl sulfoxide (DMSO) was added and the plates were gently shaken to solubilize the formed formazan for 30 min. The absorbance was measured using a micro-plate reader at wave length 590 nm. The CC50 were obtained by fitting the data to a sigmoidal dose-response equation using Graphpad Prism 6.

VIM-2 expressing E. coli = experiment: EC50* for restoring amoxicillin growth inhibition in VIM-2 expressing E. coli; format: cell-based; conditions: in the presence of 50 μM amoxicillin
Method: as §2
The bacterial culture was prepared as described above. […] The mixing of the bacterial culture plate were then incubated in a 37° C. […] shaken incubator at 200 rpm for 18 h before measuring their optical density at 600 nm.

HEK293 cells [5] = system: HEK293 cells
Method: as §3, §4

HDACs = conditions: earlier study; cited from earlier work
HEK293 cells [6] = experiment: Cytotoxicity by MTT cell proliferation assay in HEK293; conditions: HEK293 CC50 ratio
Method: as §3, §4

[7] = 50 μM compound, 5 nM VIM-2, 10 μM nitrocefin, 30 mins
[8] = 5 nM VIM-2, 10 μM nitrocefin, read-out: IC50
[9] = competitive-inhibition fit, nitrocefin substrate, read-out: Ki

Row | Compound | % Inhibition at 50 μM (VIM-2 [1]; [7]) | inhibition at 50 µM (VIM-2 [1]; [7]) | relative percentage growth compared to untreated cells (E. coli; Amox(+), 50 μM amoxicillin) | relative percentage growth compared to untreated cells (E. coli; Amox(−)) | relative percentage growth compared to untreated cells (VIM2 expressing E. coli; Amox(+), 50 μM amoxicillin) | relative percentage growth compared to untreated cells (VIM2 expressing E. coli; Amox(−)) | VIM2 inhibition in words (VIM-2 [1]) | other results
1 | O=C(O)[C@H]1/C(=C/CO)O[C@@H]2CC(=O)N21 [Clavulanate] | 15% | ≤ 25% | 2.9% | 86% | 57% | 93% |  | 
2 | O=C(CCCCCCC(=O)Nc1ccccc1)NO [SAHA] | 29% |  | 3.6% | 83% | 60% | 79% | Poor inhibition | 
3 | O=C(NC(C(=O)O)c1ccccc1)c1ccc(=O)n(O)c1 (stereo not drawn) [Compound 1, 2-(1-Hydroxy-6-oxo-1,6-dihydropyridine-3-carboxamido)-2-phenylacetic acid] |  | 12% |  |  |  |  | Poor inhibition | 
4 | C[C@]1(Cn2ccnn2)[C@H](C(=O)O)N2C(=O)C[C@H]2S1(=O)=O [Tazobactam] | 25% | ≤ 25% |  |  |  |  |  | 
5 | O=C(N[C@@H](C(=O)O)c1ccccc1)c1cccc(=S)n1O [Compound 5] | 34% |  |  |  |  |  | Moderate inhibitory activities | fold loss of Ki relative to compound 3 (VIM-2 [2]): 576 fold; IC50 (VIM-2 [2]; [8]): 67.9 µM; Ligand efficiency (LE) (VIM-2 [2]): 0.34; Ki (VIM-2 [2]; [9]): 7.5 µM
6 | CC1(C)S[C@@H]2[C@H](NC(=O)[C@H](N)c3ccc(O)cc3)C(=O)N2[C@H]1C(=O)O [Amox, amoxicillin] |  |  | 3.6% |  | 77% |  |  | growth inhibition by amoxicillin alone (E. coli; wild type E. coli, 50 μM): over 96%
7 | C[C@H](CS)C(=O)N1CCC[C@H]1C(=O)O [L-Captopril] | 98% |  |  |  |  |  |  | antibacterial activity on their own, in words (E. coli; wild type E. coli): moderate antibacterial activity; antibacterial activity on their own, in words (VIM2 expressing E. coli): moderate antibacterial activity; synergistic growth inhibition with amoxicillin (VIM2 expressing E. coli): over 90%; IC50 (VIM-2 [3]): 4.4 µM
8 | On1ccccc1=S [Compound 2b, 1-Hydroxypyridine-2-thione] |  |  |  |  |  |  |  | inhibition at 50 µM (VIM-2 [1]): 93%; IC50 (VIM-2 [2]): 0.908 µM; Ki (VIM-2 [2]): 0.217 µM; growth inhibition activity on its own (E. coli; wild type E. coli, compound alone): over 89%; growth inhibition activity on its own (VIM2 expressing E. coli; compound alone): over 89%; CC50 at 72 h [4]: 0.014 µM
9 | Zinc pyrithione [Compound 2a] | 15% |  |  |  |  |  |  | 
10 | O=C(O)c1cccc(=S)n1O [Compound 3, 1-Hydroxypyridine-2(1H)-thiones-6-carboxylic acid] | 98% |  | 3.6% | 77% | 3.2% | 61% |  | IC50 (VIM-2 [2]; [8]): 0.27 µM; Ligand efficiency (LE) (VIM-2 [2]): 0.99; Ki (VIM-2 [2]; [9]): 0.013 µM; IC50 (VIM-2 [2]; read-out: IC50): 0.27 µM; Ki (VIM-2 [2]; read-out: Ki): 0.013 µM; antibacterial activity on their own, in words (E. coli; wild type E. coli): moderate antibacterial activity; antibacterial activity on their own, in words (VIM2 expressing E. coli): moderate antibacterial activity; synergistic growth inhibition with amoxicillin (VIM2 expressing E. coli): over 90%; EC50 (VIM-2 expressing E. coli): 0.1 µM and 0.11 µM; CC50 (HEK293 cells [5]): 97 µM; range selectivity among all eleven HDACs (HDACs): ~5000 fold; fold change in cytotoxicity from parent compound 2 (HEK293 cells [6]): 6900 fold
